How the values were obtained:
[1] = biological target: Mitogen-activated protein kinase 14 (Homo sapiens, UniProt Q16539); experiment: Inhibition of human recombinant p38alpha expressed in Escherichia coli using ATF2 as substrate by proprietary radioisotopic protein kinase assay
TGF-beta receptor type-1 = biological target: T1, TGF-beta receptor type-1 (Homo sapiens, UniProt P36897); experiment: Inhibition of human recombinant GST-fused ALK5 expressed in Sf9 insect cells using casein as substrate by proprietary radioisotopic protein kinase assay
T1 sequence (P36897 whole entry): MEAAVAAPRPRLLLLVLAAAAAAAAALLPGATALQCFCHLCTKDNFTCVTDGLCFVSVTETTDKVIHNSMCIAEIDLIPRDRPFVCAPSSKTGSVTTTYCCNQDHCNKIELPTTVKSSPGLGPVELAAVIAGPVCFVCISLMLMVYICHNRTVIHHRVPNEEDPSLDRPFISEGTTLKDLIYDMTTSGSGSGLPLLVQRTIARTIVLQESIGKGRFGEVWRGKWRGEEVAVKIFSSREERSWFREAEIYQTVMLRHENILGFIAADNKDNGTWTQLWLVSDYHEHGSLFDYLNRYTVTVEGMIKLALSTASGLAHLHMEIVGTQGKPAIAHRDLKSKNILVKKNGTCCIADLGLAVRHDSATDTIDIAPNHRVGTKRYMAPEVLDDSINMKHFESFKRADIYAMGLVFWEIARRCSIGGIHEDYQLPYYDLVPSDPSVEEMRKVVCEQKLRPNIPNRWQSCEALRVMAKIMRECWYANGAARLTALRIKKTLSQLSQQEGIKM

Mitogen-activated protein kinase 14, sequence (Q16539 whole entry, the tested form may be a part): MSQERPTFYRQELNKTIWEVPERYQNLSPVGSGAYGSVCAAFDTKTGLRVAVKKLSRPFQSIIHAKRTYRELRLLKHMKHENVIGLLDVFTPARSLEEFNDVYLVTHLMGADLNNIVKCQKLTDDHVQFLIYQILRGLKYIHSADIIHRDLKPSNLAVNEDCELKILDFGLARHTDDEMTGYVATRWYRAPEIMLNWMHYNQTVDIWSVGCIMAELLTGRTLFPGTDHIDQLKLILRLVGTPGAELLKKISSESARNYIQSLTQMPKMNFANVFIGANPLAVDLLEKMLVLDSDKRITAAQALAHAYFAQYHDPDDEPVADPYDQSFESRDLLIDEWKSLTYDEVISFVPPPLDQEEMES

IC50 [1] [nM]	IC50 (TGF-beta receptor type-1) [nM]	Compound
399	9.76	Cc1ccc(F)c(-c2[nH]c(CNc3ccccc3)nc2-c2ccc3ncnn3c2)n1
1240	7.68	Cc1nc(-c2[nH]c(CNc3cccc(C#N)c3)nc2-c2ccc3ncnn3c2)ccc1F
3370	12.5	Cc1nc(-c2[nH]c(CNc3ccccc3F)nc2-c2ccc3ncnn3c2)ccc1F
209	9.23	Cc1ccc(F)c(-c2[nH]c(CNc3cccc(C#N)c3)nc2-c2ccc3ncnn3c2)n1
1480	10.8	Cc1nc(-c2[nH]c(CNc3cccc(C(N)=O)c3)nc2-c2ccc3ncnn3c2)ccc1F
> 10000	41.9	Cc1cc(F)cc(-c2[nH]c(CNc3ccccc3F)nc2-c2ccc3ncnn3c2)n1
2040	9.23	Cc1nc(-c2[nH]c(CNc3ccccc3)nc2-c2ccc3ncnn3c2)ccc1F
> 10000	72.5	Cc1cc(F)cc(-c2[nH]c(CNc3ccccc3)nc2-c2ccc3ncnn3c2)n1
1810	13.7	C=Cc1cccc(NCc2nc(-c3ccc4ncnn4c3)c(-c3ccc(F)c(C)n3)[nH]2)c1
405	–	Cc1cccc(-c2nn3c(c2-c2ccnc4ccc(C(N)=O)cc24)CCC3)n1 [GALUNISERTIB]
171	9.81	C=Cc1cccc(NCc2nc(-c3ccc4ncnn4c3)c(-c3nc(C)ccc3F)[nH]2)c1
251	11	Cc1ccc(F)c(-c2[nH]c(CNc3cccc(C(N)=O)c3)nc2-c2ccc3ncnn3c2)n1
766	12.1	Cc1ccc(F)c(-c2[nH]c(CNc3ccccc3F)nc2-c2ccc3ncnn3c2)n1
